Results as given in patent US7629332B2, “Nitrophenyl mustard and nitrophenylaziridine alcohols and their corresponding phosphates and their use as targeted cytotoxic agents” (Auckland Uniservices Limited, priority 2003, dated 2009).

Assays:
WiDr (NTR+ve) = experiment: Cell proliferation (sulphorhodamine B) IC50, NTR-transfected WiDr human colon cells; format: cell-based; settings: for WiDr WT:NTR IC50 Ratio: 4 h, sensitivity ratio for NTR expression; for IC50: 4 h drug exposure, growth 5 further days
A549 (P450R+ve) = experiment: Cell proliferation (sulphorhodamine B) IC50, P450R-transfected A549 human lung cells, anoxia vs 20% O2; format: cell-based; settings: for A549 (P450R+ve) 20% O2/anoxia IC50 Ratio: 4 h, sensitivity ratio for hypoxia
[1] = tested on: SiHa human tumour xenografts; experiment: SiHa xenograft excision / clonogenic assay, with or without 15 Gy radiation; format: in vivo; settings: for Log kill, cmpd after radiation: single i.p. dose 5 min after 15 Gy, relative to radiation only; for Log kill, cmpd only, Mean ± sem: single i.p. dose, no radiation, relative to vehicle controls, excision 18 h
[2] = 4 h drug exposure under 0% oxygen
[3] = A549, 4 h drug exposure under 0% oxygen

| Compound | WiDr WT:NTR IC50 Ratio (WiDr (NTR+ve)) | IC50 (WiDr (NTR+ve)) | A549 (P450R+ve) 20% O2/anoxia IC50 Ratio (A549 (P450R+ve)) | IC50 (A549 (P450R+ve); [2]) | Log kill, cmpd after radiation ([1]; 20% of MTD) | Log kill, cmpd after radiation ([1]; 75% of MTD) | Log kill, cmpd only, Mean ± sem ([1]; 75% of MTD) | IC50 (WiDr (NTR+ve); WiDr) | IC50 (A549 (P450R+ve); [3]) |
| --- | --- | --- | --- | --- | --- | --- | --- | --- | --- |
| 2 [(2-Bromoethyl)-5-[[(3-Hydroxypropyl)Amino]Carbonyl]-2,4-Dinitroanilino]Ethyl Methanesulfonate [IIa-13] | 90 | 5 µM | 18 | 32 µM |  |  |  |  |  |
| 2-((2-Bromoethyl)-2-{[(2-Hydroxyethyl)Amino]Carbonyl}-4,6-Dinitroanilino)Ethyl Methanesulfonate [IIb-12] | 48 | 0.4 µM | 133 | 0.28 µM |  |  |  |  |  |
| 2-((2-Bromoethyl)-2-{[(2-Hydroxypropyl)Amino]Carbonyl}-4,6-Dinitroanilino)Ethyl Methanesulfonate [IIb-13] | 27 | 0.3 µM | 138 | 0.15 µM |  |  |  |  |  |
| 2-((2-Bromoethyl)-3-{[(2-Hydroxyethyl)Amino]carbonyl}-2,4-Dinitroanilino)Ethyl Methanesulfonate [IIc-12] | 84 | 5 µM | 173 | 2.6 µM |  |  |  |  |  |
| 2-((2-Bromoethyl)-3-{[(3-Hydroxypropyl)Amino]Carbonyl}-2,4-Dinitroanilino)Ethyl Methanesulfonate [IIc-13] | 95 | 4.3 µM | 134 | 4.5 µM |  |  |  |  |  |
| 2-((2-Bromoethyl)-3-{[(4-Hydroxybutyl)Amino]Carbonyl}-2,4-Dinitroanilino)Ethyl Methanesulfonate [IIc-14] | 16 | 20 µM | 57 | 7.1 µM |  |  |  |  |  |
| 2-((2-Iodoethyl)-2-{[(2-Hydroxyethyl)Amino]Carbonyl}-4,6-Dinitroanilino)Ethyl Methanesulfonate [IIb-15] | 31 | 0.3 µM | 118 | 0.28 µM |  |  |  |  |  |
| 2-[(2-Bromoethyl)-2,4-Dinitro-3-[[[2-(Phosphonooxy)Ethyl]Amino]-Carbonyl]Anilino]Ethyl Methanesulfonate [Ic-12P] |  |  |  |  | 2.03 ± 0.25 | ≧2.96 ± 0.31 | 1.04 ± 0.29 |  |  |
| 2-[(2-Bromoethyl)-2,4-Dinitro-3-[[[3-(Phosphonooxy)Propyl]Amino]-Carbonyl]Anilino]Ethyl Methanesulfonate [Ic-13P] |  |  |  |  | 1.60 ± 0.20 | ≧3.23 ± 0.08 | 2.36 ± 0.28 |  |  |
| 2-[(2-Bromoethyl)-2,4-Dinitro-6-[[[2-(Phosphonooxy)Ethyl]Amino]-Carbonyl]Anilino]Ethyl Methanesulfonate [Ib-12P] |  |  |  |  | 1.65 ± 0.19 | ≧3.38 ± 0.28 | 1.32 ± 0.30 |  |  |
| 2-[(2-Chloroethyl)-2,4-Dinitro-3-[[[3-(Phosphonooxy)Propyl]Amino]-Carbonyl]Anilino]Ethyl Methanesulfonate [Ic-6P] |  |  |  |  | 1.64 ± 0.30 | ≧2.62 ± 0.17 | 1.11 ± 0.20 |  |  |
| 2-[(2-Chloroethyl)-2,4-Dinitro-6-[[[2-(Phosphonooxy)Ethyl]amino]-Carbonyl]Anilino]Ethyl Methanesulfonate [Ib-2mP] |  |  |  |  | 2.56 ± 0.37 | ≧3.47 ± 0.17 | 2.47 ± 0.08 |  |  |
| 2-[(2-Iodoethyl)-2,4-Dinitro-3-[[[3-(Phosphonooxy)Propyl]Amino]-Carbonyl]Anilino]Ethyl Methanesulfonate [Ic-15P] |  |  |  |  | 1.81 ± 0.23 | 2.80 ± 0.40 | 2.27 ± 0.17 |  |  |
| 2-[Bis(2-Chloroethyl)Amino]-N-(6-Hydroxybexyl)-3,5-Dinitrobenzamide [IIb-6] | 5 | 27 µM |  |  |  |  |  |  |  |
| O=C(NCCCO)c1cc(N(CCCl)CCCl)c([N+](=O)[O-])cc1[N+](=O)[O-] [IIa-3, N-(3-Hydroxypropyl)-5-[bis(2-Chloroethyl)Amino]-2,4-Dinitrobenzamide] | 36 |  | 23 |  |  |  |  | 47 µM | 54 µM |
| O=C(NCCO)c1cc(N(CCBr)CCBr)c([N+](=O)[O-])cc1[N+](=O)[O-] [IIa-7, N-(2-Hydroxyethyl)-5-[Bis(2-Bromoethyl)Amino]-2,4-Dinitrobenzamide] | 99 |  | 49 |  |  |  |  | 1.5 µM | 6.7 µM |
| O=C(NCCCO)c1cc(N(CCBr)CCBr)c([N+](=O)[O-])cc1[N+](=O)[O-] [IIa-8, N-(3-Hydroxypropyl)-5-[Bis(2-Bromoethyl)Amino]-2,4-Dinitrobenzamide] | 224 |  | 6.6 |  |  |  |  | 1.6 µM | 23 µM |
| O=C(NCCCCCO)c1cc(N(CCBr)CCBr)c([N+](=O)[O-])cc1[N+](=O)[O-] [IIa-10, N-(5-Hydroxypentyl)-5-[Bis(2-Bromoethyl)Amino]-2,4-Dinitrobenzamide] | 22 |  |  |  |  |  |  | 10 µM |  |
| O=C(NCCCCCCO)c1cc(N(CCBr)CCBr)c([N+](=O)[O-])cc1[N+](=O)[O-] [IIa-11, N-(6-Hydroxyhexyl)-5-[Bis(2-Bromoethyl)Amino]-2,4-Dinitrobenzamide] | 9 |  |  |  |  |  |  | 11 µM |  |
| O=C(NCCO)c1cc(N(CCI)CCI)c([N+](=O)[O-])cc1[N+](=O)[O-] [IIa-14, 5-[Bis(2-Iodoethyl)Amino]-N-(2-Hydroxyethyl)-2,4-Dinitrobenzamide] | 49 |  | 4.5 |  |  |  |  | 2.9 µM | 13 µM |
| O=C(NCCCCO)c1cc([N+](=O)[O-])cc([N+](=O)[O-])c1N(CCCl)CCCl [IIb-4, 2-[Bis(2-Chloroethyl)Amino]-N-(4-Hydroxybutyl)-3,5-Dinitrobenzamide] | 18 |  |  |  |  |  |  | 14 µM |  |
| O=C(NCCCCCO)c1cc([N+](=O)[O-])cc([N+](=O)[O-])c1N(CCCl)CCCl [IIb-5, 2-[Bis(2-Chloroethyl)Amino]-N-(5-Hydroxypentyl)-3,5-Dinitrobenzamide] | 19 |  |  |  |  |  |  | 13 µM |  |
| O=C(NCCCCO)c1cc([N+](=O)[O-])cc([N+](=O)[O-])c1N(CCBr)CCBr [IIb-9, 2-[Bis(2-Bromoethyl)Amino]-N-(4-Hydroxybutyl)-3,5-Dinitrobenzamide] | 5 |  | 20 |  |  |  |  | 0.9 µM | 1.4 µM |
| O=C(NCCCCCO)c1cc([N+](=O)[O-])cc([N+](=O)[O-])c1N(CCBr)CCBr [IIb-10, 2-[Bis(2-Bromoethyl)Amino]-N-(5-Hydroxypentyl)-3,5-Dinitrobenzamide] | 2 |  | 11 |  |  |  |  | 0.9 µM | 2.3 µM |
| O=C(NCCCCCCO)c1cc([N+](=O)[O-])cc([N+](=O)[O-])c1N(CCBr)CCBr [IIb-11, 2-[Bis(2-Bromoethyl)Amino]-N-(6-Hydroxyhexyl)-3,5-Dinitrobenzamide] | 2 |  | 4.5 |  |  |  |  | 1 µM | 6.6 µM |
| O=C(NCCO)c1c([N+](=O)[O-])ccc(N(CCBr)CCBr)c1[N+](=O)[O-] [IIc-7, 3-[Bis(2-Bromoethyl)Amino]-N-(2-Hydroxyethyl)-2,6-Dinitrobenzamide] | 46 |  | 40 |  |  |  |  | 10 µM | 3.9 µM |
| O=C(NCCCO)c1c([N+](=O)[O-])ccc(N(CCBr)CCBr)c1[N+](=O)[O-] [IIc-8, 3-[Bis(2-Bromoethyl)Amino]-N-(3-Hydroxypropyl)-2,6-Dinitrobenzamide] | 70 |  | 24 |  |  |  |  | 5 µM | 6.6 µM |
| O=C(NCCCCO)c1c([N+](=O)[O-])ccc(N(CCBr)CCBr)c1[N+](=O)[O-] [IIc-9, 3-[Bis(2-Bromoethyl)Amino]-N-(4-Hydroxybutyl)-2,6-Dinitrobenzamide] | 6 |  | 21 |  |  |  |  | 31 µM | 7.3 µM |
